Consider five molecules from PMC5540273, “Progress towards a public chemogenomic set for protein kinases and a call for contributions” (PLoS ONE, 2017).

Assay in all cases: KINOMEscan competition binding
For one test, the target named is GRK4 (Homo sapiens, UniProt P32298). Particulars: read-out: %Inh GRK4.
In the next test the target is BTK (Homo sapiens, UniProt Q06187). The following applies: read-out: %Inh BTK.
For the next test, the target named is T1, AXL (Homo sapiens, UniProt P30530).
T1 sequence (P30530 26-894): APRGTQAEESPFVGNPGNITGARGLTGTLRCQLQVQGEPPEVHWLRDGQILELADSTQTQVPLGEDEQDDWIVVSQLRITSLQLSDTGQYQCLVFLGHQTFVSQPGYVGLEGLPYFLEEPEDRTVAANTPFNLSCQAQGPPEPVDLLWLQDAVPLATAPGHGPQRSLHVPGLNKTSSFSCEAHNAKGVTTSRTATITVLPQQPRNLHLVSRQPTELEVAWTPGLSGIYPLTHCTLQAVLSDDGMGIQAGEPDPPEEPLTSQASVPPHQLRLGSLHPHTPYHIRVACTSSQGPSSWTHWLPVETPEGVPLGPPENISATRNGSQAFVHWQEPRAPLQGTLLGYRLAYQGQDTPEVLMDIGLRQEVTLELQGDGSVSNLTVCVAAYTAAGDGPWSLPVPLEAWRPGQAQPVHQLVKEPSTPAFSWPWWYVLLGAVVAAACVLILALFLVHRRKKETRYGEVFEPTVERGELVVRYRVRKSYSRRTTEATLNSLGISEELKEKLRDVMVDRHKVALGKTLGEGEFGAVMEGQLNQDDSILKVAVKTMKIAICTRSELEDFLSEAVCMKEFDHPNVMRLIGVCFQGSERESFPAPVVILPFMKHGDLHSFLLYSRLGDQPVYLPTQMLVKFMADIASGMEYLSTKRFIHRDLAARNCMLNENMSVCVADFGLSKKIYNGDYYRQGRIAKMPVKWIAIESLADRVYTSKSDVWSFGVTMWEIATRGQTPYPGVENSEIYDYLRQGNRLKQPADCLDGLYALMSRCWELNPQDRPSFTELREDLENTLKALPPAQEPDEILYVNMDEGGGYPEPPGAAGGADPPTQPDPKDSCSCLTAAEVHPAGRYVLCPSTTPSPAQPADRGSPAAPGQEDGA
Particulars: read-out: %Inh AXL.

The next test concerns the target ERK4 (Homo sapiens, UniProt P31152). The following applies: read-out: %Inh ERK4.
The target of another test is FGFR3 (Homo sapiens, UniProt P22607). Particulars: read-out: %Inh FGFR3.
Another test concerns the target T2, CDC2L2 (Homo sapiens, UniProt Q9UQ88).
T2 sequence (Q9UQ88 1-783): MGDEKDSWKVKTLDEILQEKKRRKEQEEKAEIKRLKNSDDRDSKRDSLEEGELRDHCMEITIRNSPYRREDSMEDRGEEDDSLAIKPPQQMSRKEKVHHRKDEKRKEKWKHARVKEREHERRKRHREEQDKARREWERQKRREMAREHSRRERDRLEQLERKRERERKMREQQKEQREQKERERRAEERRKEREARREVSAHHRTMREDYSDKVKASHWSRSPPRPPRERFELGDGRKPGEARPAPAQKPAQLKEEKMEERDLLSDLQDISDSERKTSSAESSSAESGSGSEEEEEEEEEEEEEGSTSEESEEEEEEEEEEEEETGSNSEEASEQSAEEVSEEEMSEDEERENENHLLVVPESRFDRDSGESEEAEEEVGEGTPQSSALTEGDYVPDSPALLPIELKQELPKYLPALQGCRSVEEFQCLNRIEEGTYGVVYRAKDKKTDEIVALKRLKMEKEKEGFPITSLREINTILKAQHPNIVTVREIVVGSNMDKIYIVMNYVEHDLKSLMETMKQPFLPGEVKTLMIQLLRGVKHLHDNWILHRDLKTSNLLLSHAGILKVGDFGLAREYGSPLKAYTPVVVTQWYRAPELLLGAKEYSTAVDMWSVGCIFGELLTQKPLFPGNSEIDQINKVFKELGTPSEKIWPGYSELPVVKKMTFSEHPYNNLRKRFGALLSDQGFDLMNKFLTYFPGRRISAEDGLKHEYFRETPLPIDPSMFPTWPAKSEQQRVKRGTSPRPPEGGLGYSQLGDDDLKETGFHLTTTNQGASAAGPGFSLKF
Particulars: read-out: %Inh CDC2L2.

The target in the next test is DMPK2 (Homo sapiens, UniProt Q6DT37). The following applies: read-out: %Inh DMPK2.
A further test concerns the target ABL1-phosphorylated (Homo sapiens, UniProt P00519). The following applies: read-out: %Inh ABL1-phosphorylated.
The next test has as its target LCK (Homo sapiens, UniProt P06239). The following applies: read-out: %Inh LCK.
Another test has as its target T3, ACVR1B (Homo sapiens, UniProt P36896).
T3 sequence (P36896 24-505): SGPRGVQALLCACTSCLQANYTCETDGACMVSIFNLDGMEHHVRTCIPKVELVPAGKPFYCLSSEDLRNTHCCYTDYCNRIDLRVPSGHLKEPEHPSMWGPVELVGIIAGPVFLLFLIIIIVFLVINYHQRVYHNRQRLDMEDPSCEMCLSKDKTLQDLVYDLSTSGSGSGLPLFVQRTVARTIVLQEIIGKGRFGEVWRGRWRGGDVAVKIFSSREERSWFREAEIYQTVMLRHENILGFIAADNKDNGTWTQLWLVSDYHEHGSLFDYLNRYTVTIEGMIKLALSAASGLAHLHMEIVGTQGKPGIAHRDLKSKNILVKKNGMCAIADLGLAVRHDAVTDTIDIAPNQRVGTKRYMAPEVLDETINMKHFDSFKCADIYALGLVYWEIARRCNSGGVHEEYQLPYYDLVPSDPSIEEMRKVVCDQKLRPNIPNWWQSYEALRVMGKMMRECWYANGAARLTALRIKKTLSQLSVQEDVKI
The following applies: read-out: %Inh ACVR1B.

Chain of ABL1-phosphorylated (P00519 whole entry): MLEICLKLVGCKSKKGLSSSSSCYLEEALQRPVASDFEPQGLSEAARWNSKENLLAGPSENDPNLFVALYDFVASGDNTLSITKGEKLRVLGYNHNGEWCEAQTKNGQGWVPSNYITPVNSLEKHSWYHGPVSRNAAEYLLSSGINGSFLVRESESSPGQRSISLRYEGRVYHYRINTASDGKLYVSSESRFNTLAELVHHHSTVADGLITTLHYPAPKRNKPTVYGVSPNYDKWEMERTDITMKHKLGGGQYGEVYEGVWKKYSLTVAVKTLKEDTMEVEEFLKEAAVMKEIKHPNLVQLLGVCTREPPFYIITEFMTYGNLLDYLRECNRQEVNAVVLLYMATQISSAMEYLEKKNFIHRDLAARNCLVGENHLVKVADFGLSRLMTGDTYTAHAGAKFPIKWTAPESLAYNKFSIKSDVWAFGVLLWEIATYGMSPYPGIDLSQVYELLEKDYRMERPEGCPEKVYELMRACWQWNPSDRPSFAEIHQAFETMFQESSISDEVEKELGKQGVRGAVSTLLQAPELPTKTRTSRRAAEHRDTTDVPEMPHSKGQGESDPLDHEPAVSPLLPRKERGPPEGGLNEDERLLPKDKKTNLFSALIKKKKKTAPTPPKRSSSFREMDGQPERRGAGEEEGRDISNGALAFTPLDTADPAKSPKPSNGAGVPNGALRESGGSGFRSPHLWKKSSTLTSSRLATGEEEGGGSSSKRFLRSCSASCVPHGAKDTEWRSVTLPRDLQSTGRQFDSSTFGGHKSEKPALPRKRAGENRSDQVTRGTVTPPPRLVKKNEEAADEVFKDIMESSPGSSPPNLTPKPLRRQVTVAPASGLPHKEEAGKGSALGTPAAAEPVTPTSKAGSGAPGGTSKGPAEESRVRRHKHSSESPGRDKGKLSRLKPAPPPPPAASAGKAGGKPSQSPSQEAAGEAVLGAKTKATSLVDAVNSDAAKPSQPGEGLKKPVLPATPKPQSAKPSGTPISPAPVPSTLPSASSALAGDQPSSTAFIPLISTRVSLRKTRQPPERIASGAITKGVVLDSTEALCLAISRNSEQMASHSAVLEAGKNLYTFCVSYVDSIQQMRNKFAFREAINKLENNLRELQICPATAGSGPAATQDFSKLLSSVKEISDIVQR
Chain of ERK4 (P31152 whole entry): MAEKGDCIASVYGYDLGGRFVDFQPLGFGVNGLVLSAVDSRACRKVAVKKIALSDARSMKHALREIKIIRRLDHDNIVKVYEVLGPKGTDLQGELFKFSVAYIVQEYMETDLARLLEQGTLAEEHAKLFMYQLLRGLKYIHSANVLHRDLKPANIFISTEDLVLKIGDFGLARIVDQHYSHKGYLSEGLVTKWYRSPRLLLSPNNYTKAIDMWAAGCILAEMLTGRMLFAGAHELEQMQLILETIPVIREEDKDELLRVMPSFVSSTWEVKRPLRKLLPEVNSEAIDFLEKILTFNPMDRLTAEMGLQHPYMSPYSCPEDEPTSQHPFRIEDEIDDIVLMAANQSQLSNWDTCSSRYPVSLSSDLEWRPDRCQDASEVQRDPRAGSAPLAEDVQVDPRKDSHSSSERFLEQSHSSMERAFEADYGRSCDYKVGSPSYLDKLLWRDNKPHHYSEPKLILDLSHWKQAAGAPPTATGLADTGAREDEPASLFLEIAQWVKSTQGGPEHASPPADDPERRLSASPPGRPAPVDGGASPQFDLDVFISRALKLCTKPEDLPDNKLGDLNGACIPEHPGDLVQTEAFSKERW
Chain of DMPK2 (Q6DT37 whole entry): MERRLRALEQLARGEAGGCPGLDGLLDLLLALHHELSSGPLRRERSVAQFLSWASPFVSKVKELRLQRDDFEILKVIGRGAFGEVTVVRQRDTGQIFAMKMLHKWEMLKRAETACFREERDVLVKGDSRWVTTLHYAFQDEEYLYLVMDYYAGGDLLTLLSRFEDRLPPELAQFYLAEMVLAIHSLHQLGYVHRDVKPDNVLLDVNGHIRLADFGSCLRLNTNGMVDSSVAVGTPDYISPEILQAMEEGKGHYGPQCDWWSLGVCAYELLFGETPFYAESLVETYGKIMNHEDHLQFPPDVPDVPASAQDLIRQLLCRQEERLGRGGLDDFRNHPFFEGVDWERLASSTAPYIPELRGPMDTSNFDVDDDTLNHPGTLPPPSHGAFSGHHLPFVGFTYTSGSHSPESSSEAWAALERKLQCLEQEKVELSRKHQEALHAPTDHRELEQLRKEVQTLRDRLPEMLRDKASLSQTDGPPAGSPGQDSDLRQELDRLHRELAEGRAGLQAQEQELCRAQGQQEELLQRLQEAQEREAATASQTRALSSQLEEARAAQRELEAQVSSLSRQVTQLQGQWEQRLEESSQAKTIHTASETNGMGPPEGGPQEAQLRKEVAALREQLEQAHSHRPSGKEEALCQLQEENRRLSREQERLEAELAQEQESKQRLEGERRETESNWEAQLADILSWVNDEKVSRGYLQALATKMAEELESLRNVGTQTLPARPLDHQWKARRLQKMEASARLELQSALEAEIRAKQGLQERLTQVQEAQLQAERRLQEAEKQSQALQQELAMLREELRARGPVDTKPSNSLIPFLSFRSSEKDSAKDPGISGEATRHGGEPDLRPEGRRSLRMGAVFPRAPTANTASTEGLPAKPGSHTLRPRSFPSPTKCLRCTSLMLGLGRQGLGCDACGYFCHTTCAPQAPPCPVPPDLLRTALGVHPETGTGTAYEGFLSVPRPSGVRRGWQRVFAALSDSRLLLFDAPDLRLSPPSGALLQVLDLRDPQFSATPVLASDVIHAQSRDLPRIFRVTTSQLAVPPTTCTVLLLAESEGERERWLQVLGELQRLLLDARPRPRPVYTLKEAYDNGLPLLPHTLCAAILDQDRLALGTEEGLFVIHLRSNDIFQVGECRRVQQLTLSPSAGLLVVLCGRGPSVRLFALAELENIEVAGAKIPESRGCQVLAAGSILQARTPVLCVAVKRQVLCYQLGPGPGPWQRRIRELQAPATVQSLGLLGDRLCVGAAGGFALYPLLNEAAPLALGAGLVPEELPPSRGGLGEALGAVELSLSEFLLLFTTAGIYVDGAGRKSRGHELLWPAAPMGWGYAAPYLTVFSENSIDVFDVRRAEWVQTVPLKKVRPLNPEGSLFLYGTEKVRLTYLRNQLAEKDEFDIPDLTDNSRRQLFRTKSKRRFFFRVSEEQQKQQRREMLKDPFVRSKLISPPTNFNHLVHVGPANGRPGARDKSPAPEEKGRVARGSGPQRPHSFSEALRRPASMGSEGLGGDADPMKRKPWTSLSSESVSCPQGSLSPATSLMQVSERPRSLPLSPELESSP
Chain of FGFR3 (P22607 23-806): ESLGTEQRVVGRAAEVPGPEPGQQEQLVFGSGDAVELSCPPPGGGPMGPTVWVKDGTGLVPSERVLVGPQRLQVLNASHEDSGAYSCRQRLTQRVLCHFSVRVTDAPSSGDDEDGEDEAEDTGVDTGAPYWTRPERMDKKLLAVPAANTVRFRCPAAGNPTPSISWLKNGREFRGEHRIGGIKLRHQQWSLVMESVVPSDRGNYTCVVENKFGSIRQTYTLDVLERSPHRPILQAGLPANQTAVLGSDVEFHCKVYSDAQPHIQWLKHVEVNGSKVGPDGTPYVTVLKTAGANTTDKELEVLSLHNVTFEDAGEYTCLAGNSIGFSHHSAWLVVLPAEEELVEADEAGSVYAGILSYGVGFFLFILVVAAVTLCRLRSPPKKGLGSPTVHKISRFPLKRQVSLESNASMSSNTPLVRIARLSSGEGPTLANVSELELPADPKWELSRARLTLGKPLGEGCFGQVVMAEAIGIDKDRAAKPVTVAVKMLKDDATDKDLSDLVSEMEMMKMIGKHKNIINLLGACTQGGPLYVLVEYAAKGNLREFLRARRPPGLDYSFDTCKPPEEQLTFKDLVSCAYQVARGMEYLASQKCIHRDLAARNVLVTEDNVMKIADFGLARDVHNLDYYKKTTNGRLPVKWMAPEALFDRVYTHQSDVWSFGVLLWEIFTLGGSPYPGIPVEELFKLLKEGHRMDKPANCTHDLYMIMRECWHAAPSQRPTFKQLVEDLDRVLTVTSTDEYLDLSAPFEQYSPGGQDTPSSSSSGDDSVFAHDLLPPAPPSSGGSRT
Chain of LCK (P06239 whole entry): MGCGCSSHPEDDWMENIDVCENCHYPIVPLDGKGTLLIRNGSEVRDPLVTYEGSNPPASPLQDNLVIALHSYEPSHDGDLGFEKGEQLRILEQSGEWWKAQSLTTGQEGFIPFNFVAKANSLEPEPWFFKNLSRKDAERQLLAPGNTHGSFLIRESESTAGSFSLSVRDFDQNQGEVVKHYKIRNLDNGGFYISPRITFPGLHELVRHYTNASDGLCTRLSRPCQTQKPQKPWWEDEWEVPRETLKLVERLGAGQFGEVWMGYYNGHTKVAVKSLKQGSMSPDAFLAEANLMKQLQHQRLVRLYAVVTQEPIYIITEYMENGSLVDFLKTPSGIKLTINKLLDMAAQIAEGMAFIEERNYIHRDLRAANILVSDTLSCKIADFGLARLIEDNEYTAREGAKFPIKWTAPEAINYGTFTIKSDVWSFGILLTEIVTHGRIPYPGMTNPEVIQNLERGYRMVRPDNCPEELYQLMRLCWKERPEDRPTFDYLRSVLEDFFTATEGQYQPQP

In the case of `Cn1cc(-c2cnc(N)c3c(-c4ccc5c(c4)CCN5C(=O)Cc4ccccc4)csc23)cn1` [UNC10225012A], the inhibition at 1 µM at GRK4 worked out at 7%; on BTK, 0%; at AXL, 95.9%; at ERK4 it was 0%; at FGFR3, 49%; at CDC2L2, 1%. Also, the inhibition at 1 µM was found to be 81% on DMPK2, 89% on ABL1-phosphorylated, 93.8% on LCK and 9% at ACVR1B.

Take `CS(=O)(=O)Cc1ccc(Nc2nccc(-c3c(-c4cccc(NC(=O)C5CCCCC5)c4)nn4ncccc34)n2)cc1` [UNC10225159A]: the inhibition at 1 µM at GRK4 is 0%; on BTK, 0%; on AXL, 18%; at ERK4, 3%; on FGFR3, 16%; on CDC2L2, 27%. Moreover, the inhibition at 1 µM on DMPK2 is 35%; at ABL1-phosphorylated, 15%; at LCK, 23%; at ACVR1B, 0%.

Regarding `Cc1ccc(NC(=O)Nc2cccc(C(F)(F)F)c2)cc1` [UNC10225187A], the inhibition at 1 µM at GRK4 worked out at 0%; at BTK, 0%; on AXL, 0%; at ERK4 it was 0%; on FGFR3, 5%; at CDC2L2, 0%. In addition, the inhibition at 1 µM worked out at 0% on DMPK2, 23% on ABL1-phosphorylated, 6% on LCK and 85% on ACVR1B.

With `COc1cccc(OC)c1C(=O)Nc1cccc(-c2nn3ccccc3c2-c2ccnc(Nc3cccc(F)c3)n2)c1` [UNC10225310A], the inhibition at 1 µM amounted to 0% on GRK4; 0% on BTK; 30% on AXL; 9% at ERK4; 0% at FGFR3; 0% at CDC2L2. Moreover, the inhibition at 1 µM was 84% on DMPK2, 18% on ABL1-phosphorylated, 24% at LCK and 15% at ACVR1B.

In the case of `O=c1cc(N2CCOCC2)nc2n(Cc3cccc(Cl)c3Cl)c(C3CC3)nn12` [UNC10225469A], the inhibition at 1 µM at GRK4 was determined as 0%; on BTK, 0%; on AXL, 3%; at ERK4 it was 0%; at FGFR3 it was 0%; on CDC2L2, 0%. For the same molecule, the inhibition at 1 µM on DMPK2 is 0%; at ABL1-phosphorylated, 20%; at LCK it was 23%; at ACVR1B, 0%.
